{"source": "paper PMC3752463", "about": "(Biochemical and biophysical research communications, 2013)", "key": {"CXCR4 [1]": {"biological_target": "T1, CXCR4 (Homo sapiens, UniProt P61073)", "T1 sequence (P61073 whole entry)": "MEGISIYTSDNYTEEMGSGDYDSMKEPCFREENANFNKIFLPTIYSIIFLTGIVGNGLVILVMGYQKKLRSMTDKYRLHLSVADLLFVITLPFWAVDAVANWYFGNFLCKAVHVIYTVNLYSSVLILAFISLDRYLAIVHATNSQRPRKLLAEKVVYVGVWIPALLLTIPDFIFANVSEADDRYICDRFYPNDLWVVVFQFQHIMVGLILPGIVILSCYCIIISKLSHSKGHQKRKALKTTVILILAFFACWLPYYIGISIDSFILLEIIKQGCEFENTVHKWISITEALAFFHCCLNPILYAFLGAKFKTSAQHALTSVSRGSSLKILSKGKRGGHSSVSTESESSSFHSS", "conditions": "12G5 CXCR4 competitive binding assay"}, "CXCR4 [2]": {"biological_target": "T1, CXCR4", "conditions": "ref [12], cited from earlier work; for pIC50: read-out: IC50 (anti-CXCR4 mAb 12G5 competitive assay), previously reported, anti-CXCR4 mAb 12G5 competitive assay"}, "HIV": {"system": "HIV", "conditions": "ref [12]; cited from earlier work"}}, "note": "pIC50: −log10 of the molar value. Square brackets hold non-standard residues; d marks the D form. Ends that are not written are not given here."}
{"sequence": "LGASWHRPDK [DV3]", "values": [{"measurement": "CXCR4 binding potency relative to DV1", "setting": "CXCR4 [1]", "value": "about two-fold less potent than DV1"}]}
{"sequence": "LGASWHRPDKCCLGYQKRPLP [DV1]", "values": [{"measurement": "CXCR4 binding affinity (in words), earlier work", "setting": "CXCR4 [2]; in words", "value": "moderate binding affinity with CXCR4"}, {"measurement": "anti-HIV entry activity (in words)", "setting": "HIV", "value": "anti-HIV entry activity"}]}
{"sequence": "LGASWHRPDK ([dL]G[dA][dS][dW][dH][dR][dP][dD][dK]-NH2; N-terminus assumed; SMILES CC(C)C[C@@H](N)C(=O)NCC(=O)N[C@H](C)C(=O)N[C@H](CO)C(=O)N[C@H](Cc1c[nH]c2ccccc12)C(=O)N[C@H](Cc1c[nH]cn1)C(=O)N[C@H](CCCNC(=N)N)C(=O)N1CCC[C@@H]1C(=O)N[C@H](CC(=O)O)C(=O)N[C@H](CCCCN)C(N)=O) [DV3]", "values": [{"measurement": "pIC50", "setting": "CXCR4 [2]", "value": 6.36}]}
{"sequence": "LGASWHRPDKCCLGYQKRPLP ([dL]G[dA][dS][dW][dH][dR][dP][dD][dK][dC][dC][dL]G[dY][dQ][dK][dR][dP][dL][dP]-NH2; cysteine pairing not given here) [DV1]", "values": [{"measurement": "pIC50", "setting": "CXCR4 [2]", "value": 6.63}]}
